# Results: article PMC7616191 (Molecular pharmacology, 2018)
# Molecular target: T1, human muscarinic acetylcholine M1 receptor (hM1 mAChR) (Homo sapiens, UniProt P11229)
# T1 sequence (P11229 1-460): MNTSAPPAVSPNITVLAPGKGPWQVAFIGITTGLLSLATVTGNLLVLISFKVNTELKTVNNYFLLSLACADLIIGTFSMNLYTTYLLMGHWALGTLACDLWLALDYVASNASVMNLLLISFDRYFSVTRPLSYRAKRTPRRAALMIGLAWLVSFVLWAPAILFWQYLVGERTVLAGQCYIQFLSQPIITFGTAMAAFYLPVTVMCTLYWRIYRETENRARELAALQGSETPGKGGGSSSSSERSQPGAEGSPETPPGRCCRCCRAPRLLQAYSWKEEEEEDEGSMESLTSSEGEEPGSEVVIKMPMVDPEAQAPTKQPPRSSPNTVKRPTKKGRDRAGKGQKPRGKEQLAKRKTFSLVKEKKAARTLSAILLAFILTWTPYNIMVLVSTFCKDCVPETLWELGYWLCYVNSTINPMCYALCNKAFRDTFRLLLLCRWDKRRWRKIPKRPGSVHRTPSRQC
# Test: IP1 accumulation
# Type: cell-based
# Settings: vehicle-pretreated control; orthosteric agonist; […]°C, […] h, pH […]
smiles,measurement,value
C[N+](C)(C)CC#CCN1CCCC1=O [Oxo-M],pEC50^a,6.08 ± 0.13
